Source: patent US20240392383A1, “Cancer biomarkers for susceptibility to treatment by almitrine” (priority 2021, published 2024)
Read-outs that look alike come from different tables or passages of the source.

Legend:
MYC/Max = MYC/Max (Homo sapiens, UniProt P01106); conditions: cited from earlier work
CML [1] = conditions: cited from earlier work
[2] = reason for not being suitable for in vivo use [18]; cited from earlier work
AML cells = conditions: cited from earlier work
[3] = cited from earlier work
NCI-60 = NCI-60 testing; comparators e.g. carboplatin; reported in previous applications WO2019/012149A1; cited from earlier work
NCI-60 cancer cell lines = test: CellMiner gene expression correlated with growth inhibition (%) at 10 μM (mean of NCI 1-dose and 5-dose protocols); type: cell-based, human
Excerpt: Correlations first found using NCI COMPARE, with the aforementioned method, were then further corroborated using cancer gene expression data sourced from the CellMiner database. Indeed, the following NCI 1-dose and 5-dose anti-cancer data for almitrine dimesylate, with serial codes given that will be used to refer to each hereafter, was compared with cancer gene expression data sourced from CellMiner:
The CellMiner database includes five independent Human Genome gene expression data sets {accession numbers: GSE5949, GSE5720, GSE32474, GSE29682, GSE29288}, each of which can have multiple different transcript sequence probes for a single gene, wherein the mean expression for each gene was taken: within and across the different databases, which is distinct from NCI COMPARE where all expressions of different sequence transcripts for a gene were kept distinct without any averaging, and where there was no averaging across gene expression data sets, each was kept distinct. Although actually only four of these gene expression data sets in CellMiner were used to generate the mean for each gene expression: the single gene expression data set that used an Agilent instead of an Affymetrix microarray chip (GSE29288) was excluded from the mean because, to quote the CellMiner documentation: “Agilent probe(s) values are removed from cell line average intensity calculation due to normalization inconsistency with Affymetrix probesets”. […] So, the data set sourced from an Agilent microarray chip was not incorporated in the mean, but was instead used by itself separately for an independent verification. With much less data, the Agilent set is much less reliable than the mean of the 4 Affymetrix microarray data sets, but it is a nice independent adjudicator. This Agilent data set is not one of the six gene expression data sets at NCI COMPARE. By contrast, there is some overlap in the 4 CellMiner gene expression databases that were used for the mean and the 6 that were used with NCI COMPARE (some might be the same). […] Also, distinctly with the 4 Affymetrix microarray data sets in CellMiner, the mean expression for each gene was taken: averaging the expression of all the different sequence transcripts, across all the 4 used Affymetrix microarray data sets, for each gene. Moreover, this mean is very heavily weighted to a database that CellMiner has, and NCI COMPARE definitely doesn't, Accession number: GSE29682, because it tends to have many more probes for each gene than any other data set, indeed often more than all the others combined, each of which is an additional data point in the mean for each gene. […]

[4] = intravenous 459±155 mg almitrine dimesylate infused within 24 hours [16], cited from earlier work
CML [5] = test: Anti-CML activity; type: cell-based; conditions: almitrine (or salt, solvate, hydrate, prodrug) and imatinib/dasatinib/nilotinib/radotinib/bosutinib/ponatinib; anticipated by the teaching of this disclosure

Sequence of MYC/Max (P01106 whole entry): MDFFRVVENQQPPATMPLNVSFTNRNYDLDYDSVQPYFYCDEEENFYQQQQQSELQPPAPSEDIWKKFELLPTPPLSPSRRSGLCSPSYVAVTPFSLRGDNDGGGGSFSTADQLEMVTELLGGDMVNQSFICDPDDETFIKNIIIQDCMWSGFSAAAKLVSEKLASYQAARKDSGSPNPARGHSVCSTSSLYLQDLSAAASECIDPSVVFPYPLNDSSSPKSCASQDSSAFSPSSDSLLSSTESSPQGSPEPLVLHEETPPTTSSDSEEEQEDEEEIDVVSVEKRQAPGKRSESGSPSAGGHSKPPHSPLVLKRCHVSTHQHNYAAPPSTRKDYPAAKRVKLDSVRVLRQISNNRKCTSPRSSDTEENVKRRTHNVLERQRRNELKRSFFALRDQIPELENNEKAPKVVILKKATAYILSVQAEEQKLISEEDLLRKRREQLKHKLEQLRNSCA

CCc1ccc(/C=C2/SC(=S)NC2=O)cc1 [10058-F4]
MYC/Max heterodimerization (MYC/Max; [18]): does disrupt MYC/Max heterodimerization | Affinity for target (MYC/Max; target MYC [18]): low affinity for target | Anti-cancer activity in combination (CML [1]; 10058-F4 and imatinib [26]): synergistic anti-cancer activity | Anti-CML activity (CML [1]; [26]): exerts anti-CML activity | Degradation [2]: fast degradation | Drug resistance of leukemic cells (AML cells; AML, Myc inhibition [39]): can overcome drug resistance | Differentiation of AML cells (AML cells; [42]): causes AML cells to differentiate | Apoptosis of AML cells (AML cells; at higher concentrations [42]): induces their apoptosis

C=CCNc1nc(NCC=C)nc(N2CCN(C(c3ccc(F)cc3)c3ccc(F)cc3)CC2)n1 [almitrine dimesylate]
Side-effects in humans compared with present cancer drugs ([3]; humans): less, close to no, side-effects | Reversibility of side-effects ([3]; if side-effects occur [2]): reversible upon stopping the course in nearly all cases | Side-effects ([3]; patients taking it daily for <11 months): no side-effects in nearly every patient | Side-effects ([3]; patients taking it daily for >11 months to years [2]): side-effects in a very small minority of the many patients | Anti-cancer activity compared with present cancer drugs (NCI-60): greater anti-cancer activity than many present cancer drugs | Anti-cancer activity vs SCAF11 minus RAPH1 gene expression (FIG. 1A bottom panel) (NCI-60 cancer cell lines; SCAF11 gene expression minus RAPH1 gene expression, CellMiner data): greater against cancers with greater value of SCAF11 gene expression minus RAPH1 gene expression | Susceptibility to anti-cancer activity vs MYC oncogene expression (FIG. 1C) (NCI-60 cancer cell lines; gene MYC, CellMiner data): the more likely it is susceptible | Anti-cancer activity vs RAPH1 gene expression (FIG. 1A middle panel) (NCI-60 cancer cell lines; gene RAPH1, CellMiner Affymetrix, Agilent and RNA-seq data): less against cancers with greater gene expression of RAPH1 | Anti-cancer activity vs SCAF11 gene expression (FIG. 1A upper panel) (NCI-60 cancer cell lines; gene SCAF11, CellMiner Affymetrix, Agilent and RNA-seq data): greater against cancers with greater gene expression of SCAF11 | Adverse effect ([4]; subjects with normal liver function): without any adverse effect | Blood [lactate] ([4]; subjects with poor/impaired liver function): can potentially increase blood [lactate]

C=CCNc1nc(NCC=C)nc(N2CCN(C(c3ccc(F)cc3)c3ccc(F)cc3)CC2)n1 [almitrine]
Anti-CML activity in combination (CML [5]): synergistic anti-CML activity
